Experimental data published in PubChem BioAssay (NCI).
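Each compound was tested at five concentrations against cells in 96-well plates for 48 hours. GI50 is the concentration that inhibits growth by half. TGI: concentration producing complete growth inhibition.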

Legend:
Assay in all cases: NCI tumour cell line growth inhibition, 48 h
[1] = tested on: MDA-N
[2] = tested on: XF 498 CNS
[3] = tested on: RXF-631 renal
[4] = tested on: DMS 114 small cell lung
[5] = tested on: LXFL 529 NSCLC
[6] = tested on: KM20L2 colon
[7] = tested on: SNB-78 CNS
[8] = tested on: M19-MEL melanoma
[9] = tested on: HOP-18 NSCLC
[10] = tested on: SN12K1 renal
[11] = tested on: P388/ADR leukemia
[12] = tested on: P388 leukemia

SMILES | TGI [1] | TGI [2] | TGI [4] | TGI [5] | TGI [6] | TGI [7] | TGI [8] | TGI [9] | other results
CC(SCc1ccccc1)C(=O)O (centres undefined) | > 100 µM |  |  |  |  |  |  |  | 
COc1ccc(OC(C)C(=O)O)c2c(=O)ccccc12 (centres undefined) |  | > 100 µM | > 100 µM | > 100 µM | > 100 µM | > 100 µM | > 100 µM |  | TGI [3]: > 100 µM
O=C1NC2C(O)CCCCC2C12CCCCC2 (centres undefined) |  | > 100 µM | > 100 µM | > 100 µM |  | > 100 µM | > 100 µM | > 100 µM | TGI [3]: > 100 µM
Nc1ccc(/C=C/c2ccc3cccnc3c2)cc1 | > 100 µM |  |  |  |  |  |  |  | 
CC(=O)NN1C(=O)C(Cc2ccccc2)c2ccccc21 (centres undefined) |  | > 100 µM | > 100 µM |  | > 100 µM | > 100 µM | > 100 µM | > 100 µM | TGI [3]: > 100 µM
C=C1C(=O)O[C@H]2C[C@@H]1C(=O)CC(C)CCCC(C)=CCC[C@@]2(C)O (some centres undefined) | > 25 µM |  |  |  |  |  |  |  | 
COC(=O)C1CCc2nnc(-c3ccccc3)n21 (centres undefined) |  | > 100 µM | > 100 µM | > 100 µM | > 100 µM | > 100 µM | > 100 µM |  | 
c1ccc(OC2=NC3=S(S2)SC(Oc2ccccc2)=N3)cc1 |  | 32 µM | 41 µM |  | 45 µM | 48.1 µM | 34.7 µM |  | TGI [3]: 52.1 µM
CC[PH+](CC)CC.[Cl][Au] |  | 2.67 µM |  | 1.07 µM | 8.73 µM | 5.93 µM | 6.56 µM | 3 µM | GI50 [9]: 1.64 µM; GI50 [2]: 1370 nM; GI50 [5]: 0.481 µM; GI50 [6]: 4.25 µM; GI50 [7]: 1650 nM; GI50 [8]: 1.08 µM
CC(=O)[CH-]C(=O)c1ccccc1.CC(=O)[CH-]C(=O)c1ccccc1.[O-]c1ccc2c(c1)OCO2.[O-]c1ccc2c(c1)OCO2.[Ti+4] |  |  |  | 49.9 µM | > 100 µM |  | 54.5 µM | > 100 µM | GI50 [9]: 37.7 µM; GI50 [5]: 19.3 µM; GI50 [6]: 67.9 µM; GI50 [8]: 21.9 µM
CC(=O)[O-].N.N.N.N.[Co+3].[O-][Cl+3]([O-])([O-])[O-].[OH3+] |  |  |  | > 100 µM | > 100 µM | > 100 µM |  |  | GI50 [5]: > 100 µM; GI50 [6]: > 100 µM; GI50 [7]: > 100000 nM
COc1ccc(-c2cc(=O)c3c(O)c(OC)c(OC)c(OC)c3o2)cc1 | 13 µM |  |  |  |  |  |  |  | 
C[C@H]1C=C2C(=O)O[C@H]3CC[C@@H](C1)[C@@]23O |  |  | 8.69 µM | 10.6 µM | 16.2 µM | 9.94 µM | 15.1 µM | 13.4 µM | 
CC(=O)Oc1ccc2c(c1)C(=O)c1nc(C)c(C)nc1C2=O |  | > 100 µM | > 76.4 µM | > 100 µM | > 100 µM | > 100 µM | 9.42 µM | > 100 µM | TGI [3]: > 91.9 µM
O=C[C@@H](CO)O[C@H](C=O)n1cnc2c(=O)[nH]cnc21 | 1610 µM | 1690 µM | 202 µM |  | 2130 µM | 2170 µM | 1540 µM | 1670 µM | TGI [10]: 1.57 mM; TGI [11]: 257 µM; TGI [12]: 374 µM
COc1cc(C(=O)c2cocc2C(=O)c2ccc3c(c2)OCO3)cc(OC)c1OC | 0.311 µM | 32.1 µM | > 100 µM | > 31.6 µM |  |  | > 100 µM | > 100 µM | 
COc1ccc2c(c1)CCc1c-2n[nH]c1-c1[nH]nc2c1CCc1cc(OC)ccc1-2 |  | 71.2 µM | > 100 µM | > 100 µM | > 100 µM | > 100 µM | > 100 µM | 98.5 µM | 
C[C@]12C[C@H](O)[C@H]3[C@@H](CCC4=CC(=O)CC[C@@]43C)[C@@H]1CC[C@@H]2c1csc(-c2ccccc2)n1 | > 100 µM |  |  |  |  |  |  |  | 
COCCNc1cncc(C(N)=O)c1 | > 100 µM |  |  |  |  |  |  |  | 
O=c1/c(=N\Nc2ccccc2)c2cccc3ccc4cccc1c4c32 | > 100 µM |  |  |  |  |  |  |  | 
COc1ccc([C@@H]2OC(=O)C3C2C(=O)O[C@H]3c2ccc(OC)c(OC)c2)cc1OC (some centres undefined) |  | > 100 µM | > 100 µM |  | > 100 µM | > 100 µM | > 100 µM | > 100 µM | TGI [3]: > 100 µM
COc1ccc2c(c1)CN1CCc3c(cc(OC)c(OC)c3OC)C1C2 (centres undefined) |  | > 100 µM | > 100 µM | > 100 µM | > 100 µM | > 100 µM | > 100 µM | > 100 µM | 
CN(N)c1nc(N)c(C#N)c(C#N)c1C#N | > 10 µM |  |  |  |  |  |  |  | 
C/C=C(\C)C(=O)OC1/C=C(\C)CC/C=C(\C)CC2OC(=O)C(C)(OC(C)=O)C12 (centres undefined) | > 100 µM |  |  |  |  |  |  |  | 
CC1=CCCC2C(C=O)(C1)CC(C)C2(CO)CC/C(=C/CO)CO (centres undefined) |  |  | > 100 µM | > 100 µM |  | > 100 µM | > 100 µM | > 100 µM | TGI [3]: > 100 µM
CCC(CO)Nc1nc2c(c(=O)n(C)c(=O)n2C)n1CCO (centres undefined) |  |  |  | > 100 µM | > 100 µM | 53.5 µM | > 100 µM |  | 
